Results published in PubChem BioAssay (NCI).
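Abbreviation: GI50, concentration required for 50% inhibition of growth. At the TGI there is no net growth.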

How the values were obtained:
Assay in all cases: DTP human tumour cell line panel, 384-well format
786-0 renal = system: 786-0 renal
A498 renal = system: A498 renal
A549 NSCLC = system: A549 NSCLC
ACHN renal = system: ACHN renal
BT-549 breast = system: BT-549 breast
CAKI-1 renal = system: CAKI-1 renal
CCRF-CEM leukemia = system: CCRF-CEM leukemia
COLO 205 colon = system: COLO 205 colon
DU-145 prostate = system: DU-145 prostate
HCC-2998 colon = system: HCC-2998 colon
HCT-116 colon = system: HCT-116 colon
HCT-15 colon = system: HCT-15 colon
HL-60(TB) leukemia = system: HL-60(TB) leukemia
HOP-62 NSCLC = system: HOP-62 NSCLC
HOP-92 NSCLC = system: HOP-92 NSCLC
HT29 colon = system: HT29 colon
IGROV1 ovarian = system: IGROV1 ovarian
K-562 leukemia = system: K-562 leukemia
KM12 colon = system: KM12 colon
LOX IMVI melanoma = system: LOX IMVI melanoma
M14 melanoma = system: M14 melanoma
MALME-3M melanoma = system: MALME-3M melanoma
MCF7 breast = system: MCF7 breast
MDA-MB-231 breast = system: MDA-MB-231 breast
MDA-MB-435 melanoma = system: MDA-MB-435 melanoma
MDA-MB-468 breast = system: MDA-MB-468 breast
MOLT-4 leukemia = system: MOLT-4 leukemia
NCI-H226 lung = system: NCI-H226 lung
NCI-H23 lung = system: NCI-H23 lung
NCI-H322M lung = system: NCI-H322M lung
NCI-H460 NSCLC = system: NCI-H460 NSCLC
NCI-H522 lung = system: NCI-H522 lung
NCI/ADR-RES ovarian = system: NCI/ADR-RES ovarian
OVCAR-3 ovarian = system: OVCAR-3 ovarian
OVCAR-4 ovarian = system: OVCAR-4 ovarian
OVCAR-5 ovarian = system: OVCAR-5 ovarian
OVCAR-8 ovarian = system: OVCAR-8 ovarian
PC-3 prostate = system: PC-3 prostate
RPMI-8226 leukemia = system: RPMI-8226 leukemia
RXF 393 renal = system: RXF 393 renal
SF-268 CNS = system: SF-268 CNS
SF-295 CNS = system: SF-295 CNS
SF-539 CNS = system: SF-539 CNS
SK-MEL-2 melanoma = system: SK-MEL-2 melanoma
SK-MEL-28 melanoma = system: SK-MEL-28 melanoma
SK-MEL-5 melanoma = system: SK-MEL-5 melanoma
SK-OV-3 ovarian = system: SK-OV-3 ovarian
SN12C renal = system: SN12C renal
SNB-19 CNS = system: SNB-19 CNS
SR leukemia = system: SR leukemia
SW-620 colon = system: SW-620 colon
T-47D breast = system: T-47D breast
TK-10 renal = system: TK-10 renal
U251 glioblastoma = system: U251 glioblastoma
UACC-257 melanoma = system: UACC-257 melanoma
UACC-62 melanoma = system: UACC-62 melanoma
UO-31 renal = system: UO-31 renal

## Cc1c(N(C(=O)c2cc(-c3cc(Cl)ccc3C(=O)N3Cc4ccccc4C[C@H]3CN3CCOCC3)n(C)c2C)c2ccc(O)cc2)cc(C#N)n1C
786-0 renal
  GI50: 6.22 µM
  TGI: 30 µM
A498 renal
  GI50: 4.79 µM
  TGI: 19 µM
A549 NSCLC
  GI50: 7.07 µM
  TGI: > 100 µM
ACHN renal
  GI50: 7.31 µM
  TGI: > 100 µM
BT-549 breast
  GI50: 12.5 µM
  TGI: 30.9 µM
CAKI-1 renal
  GI50: 9.01 µM
  TGI: 66.1 µM
CCRF-CEM leukemia
  GI50: 1.68 µM
  TGI: 3.11 µM
COLO 205 colon
  GI50: 25.5 µM
  TGI: > 100 µM
DU-145 prostate
  GI50: 16.3 µM
  TGI: > 100 µM
HCC-2998 colon
  GI50: 3.35 µM
  TGI: 8.64 µM
HCT-116 colon
  GI50: 4.12 µM
  TGI: > 100 µM
HCT-15 colon
  GI50: 9.36 µM
  TGI: 24.1 µM
HL-60(TB) leukemia
  GI50: 0.0546 µM
  TGI: 1.19 µM
HOP-62 NSCLC
  GI50: 5.87 µM
  TGI: 29.3 µM
HOP-92 NSCLC
  GI50: 2.58 µM
  TGI: 7.15 µM
HT29 colon
  GI50: 10.9 µM
  TGI: 43.6 µM
IGROV1 ovarian
  GI50: 13.5 µM
  TGI: > 100 µM
K-562 leukemia
  GI50: 4.85 µM
  TGI: 38.2 µM
KM12 colon
  GI50: 16.1 µM
  TGI: > 100 µM
LOX IMVI melanoma
  GI50: 10.4 µM
  TGI: 33 µM
M14 melanoma
  GI50: 12 µM
  TGI: 34.1 µM
MALME-3M melanoma
  GI50: 19.2 µM
  TGI: 47.2 µM
MCF7 breast
  GI50: 11.4 µM
  TGI: > 100 µM
MDA-MB-231 breast
  GI50: 3.74 µM
  TGI: 14.1 µM
MDA-MB-435 melanoma
  GI50: 5.21 µM
  TGI: 19.3 µM
MDA-MB-468 breast
  GI50: 2.84 µM
  TGI: 7.25 µM
MOLT-4 leukemia
  GI50: 1.61 µM
  TGI: 2.97 µM
NCI-H226 lung
  GI50: 9.16 µM
  TGI: 22.2 µM
NCI-H23 lung
  GI50: 9.38 µM
  TGI: > 100 µM
NCI-H322M lung
  GI50: 24.7 µM
  TGI: > 100 µM
NCI-H460 NSCLC
  GI50: 6.2 µM
  TGI: > 100 µM
NCI-H522 lung
  GI50: 12.8 µM
  TGI: 36.8 µM
NCI/ADR-RES ovarian
  GI50: 50.5 µM
  TGI: > 100 µM
OVCAR-3 ovarian
  GI50: 3.87 µM
  TGI: 18.9 µM
OVCAR-4 ovarian
  GI50: 5.99 µM
  TGI: 37.5 µM
OVCAR-5 ovarian
  GI50: 28 µM
  TGI: > 100 µM
OVCAR-8 ovarian
  GI50: 8.66 µM
  TGI: > 100 µM
PC-3 prostate
  GI50: 7.32 µM
  TGI: 65.6 µM
RPMI-8226 leukemia
  GI50: 1.26 µM
  TGI: 2.52 µM
RXF 393 renal
  GI50: 0.886 µM
  TGI: 3.92 µM
SF-268 CNS
  GI50: 22 µM
  TGI: > 100 µM
SF-295 CNS
  GI50: 13.4 µM
  TGI: 62.6 µM
SF-539 CNS
  GI50: 9.73 µM
  TGI: > 100 µM
SK-MEL-2 melanoma
  GI50: 5.97 µM
  TGI: 20 µM
SK-MEL-28 melanoma
  GI50: 17.1 µM
  TGI: 67.1 µM
SK-MEL-5 melanoma
  GI50: 9.04 µM
  TGI: 28.4 µM
SK-OV-3 ovarian
  GI50: 11.5 µM
  TGI: 45.2 µM
SN12C renal
  GI50: 9.51 µM
  TGI: > 100 µM
SNB-19 CNS
  GI50: 7.72 µM
  TGI: > 100 µM
SR leukemia
  GI50: 1.46 µM
  TGI: 2.87 µM
SW-620 colon
  GI50: 11.3 µM
  TGI: 25.7 µM
T-47D breast
  GI50: 6.85 µM
  TGI: > 100 µM
TK-10 renal
  GI50: 12.5 µM
  TGI: 58.6 µM
U251 glioblastoma
  GI50: 7.69 µM
  TGI: > 100 µM
UACC-257 melanoma
  GI50: 10.1 µM
  TGI: 28.5 µM
UACC-62 melanoma
  GI50: 6.3 µM
  TGI: 27.3 µM
UO-31 renal
  GI50: 10.9 µM
  TGI: > 100 µM
